Data set [1] has as its system dipeptidyl peptidase IV (DPP4). The following applies: degradation by DPP4; ref Pauly et al. [1999]; cited from earlier work. The source says:
The glucagon-like peptide type 1 receptor (GLP-1R) is overexpressed in virtually all benign insulinoma with high incidence and density and is considered a valuable target for the efficient visualisation by radiotracers (Reubi and Waser [2003]; Wild et al. [2011]; Wild et al. [2008]; Korner et al. [2012]). The natural ligand released from ileal L-cells, glucagon-like peptide 1 (GLP-1) stimulates the insulin secretion in β-cells by binding to the GLP-1R.

The subject of data set [2] is nude mice bearing CHL-GLP-1 receptor positive tumor xenografts. The following applies: mouse, in vivo. Here is the method: Animal studies complied with Swiss laws on animal protection and husbandry and were approved by the Veterinary office of the Canton Zurich. After an acclimatization period, tumor xenografts were produced in 6-week old female CD1 nu/nu mice by subcutaneous injection in both shoulder regions of CHL-GLP-1 receptor positive cells (8 × 10^6 cells/mouse in PBS (100 μL, pH 7.4)) under 2%–3% isoflurane anaesthesia. Ex vivo biodistribution experiments were conducted three weeks after the inoculation. PET imaging experiments were performed five weeks after the inoculation.
Tumor-bearing mice (n = 12) were injected intravenously with ^18F-2 (200 kBq in 100 μL PBS, 1.3 pmol, 5.9 ng). The animals were sacrificed at 30 min, 1 h and 2 h post injection (n = 4 for each time point). To determine specific binding an additional group of tumor-bearing mice (n = 4) received nonradioactive precursor 1 (100 μg in 100 μL PBS, 22 nmol) co-injected with ^18F-2 (266 kBq in 100 μL PBS, 1.7 pmol, 7.8 ng) and were sacrificed 1 h post injection. Organs and tissues of interest were collected and weighed, and the amount of radioactivity was determined in a γ-counter (1480 Wizard, PerkinElmer) to calculate percentage uptake (% injected dose per gram of tissue). Statistical significance was calculated using Student t-test (two populations, unpaired). P values of less than 0.05 were considered statistically significant.

The subject of data set [3] is CHL-GLP-1 tumor-bearing mouse. The arrangement: species or system mice. The following applies: in vivo. As to the method:
Animal studies complied with Swiss laws on animal protection and husbandry and were approved by the Veterinary office of the Canton Zurich. After an acclimatization period, tumor xenografts were produced in 6-week old female CD1 nu/nu mice by subcutaneous injection in both shoulder regions of CHL-GLP-1 receptor positive cells (8 × 10^6 cells/mouse in PBS (100 μL, pH 7.4)) under 2%–3% isoflurane anaesthesia. Ex vivo biodistribution experiments were conducted three weeks after the inoculation. PET imaging experiments were performed five weeks after the inoculation. Two tumor bearing mice were injected with ^18F-2 (13.0 MBq in 80 and 100 μL PBS containing ≤ 5% ethanol, 1.3 and 1.9 nmol) via lateral tail vein. Anaesthesia was induced with 5% isoflurane (Abbott) in O2/air 5 min before PET/CT acquisition. Depth of anaesthesia and temperature were controlled as described by Honer et al. (Honer et al. [2004]). PET/CT scans were performed under 2–3% isoflurane anaesthesia with a GE VISTA eXplore PET/CT tomograph. […] Standardized uptake values (SUV) were calculated as a ratio of tissue radioactivity concentration (kBq/cm^3) and injected activity dose per gram body weight (kBq/g) at the scan start. Percentage injected dose per gram of tissue (%ID/g) was calculated using SUV values: SUV / body weight [g] × 100% = %ID/g.

For the substance “GLP-1: natural ligand of GLP-1R released from ileal L-cells”, the metabolic half-life entry in data set [1] was “less than 2 min”. As for “His-Gly-Glu-Gly-Thr-Phe-Thr-Ser-Asp-Leu-Ser-Lys-Gln-Nle-Glu-Glu-Glu-Ala-Val-Arg-Leu-Phe-Ile-Glu-Trp-Leu-Lys-Asn-Gly-Gly-Pro-Ser-Ser-Pro-Ala-Pro-Pro-Pro-Ser-Lys-(N ^6 –2-(4-(di-tert-butylfluorosilyl)phenyl)acetyl)-NH 2 [^18F-2]”, in data set [2], the “tumor to blood ratio” value is on record as 4 ± 2. The “Tumor to background ratio” value in data set [3] was ~ 3.

Values taken from article PMC5824708 (EJNMMI Radiopharmacy and Chemistry, 2018).
